The target in one test is dopamine D2 receptors (Bos taurus, UniProt P20288). Nature of the test: Radioligand binding to dopamine D2 receptors ([3H]-Spiperone, bovine caudate nuclei). The following applies: for Ki / D2 (pK1): bovine caudate nuclei, [3H]-Spiperone, 75 minutes at room temperature, 30 nM ketanserin, two-site fitted model; for Ki: read-out: D2 (pK1) (converted). The protocol:
(§1) Radioligand Binding Experiments (Dopamine Receptor Affinity Information; pK1 values):
(§2) Bovine brains were obtained fresh from a local slaughterhouse. The caudate nuclei were dissected out and homogenized in Buffer A (50 mM Tris; 1 mM Na2 -EDTA; 5 mM KCl; 1 mM MgCl2; 2 mM CaCl2; pH 7.4) using a Brinkmann Polytron. The homogenate was centrifuged at 40,000×g for 20 minutes and washed once. The pellet was resuspended in Buffer A, incubated at 37° C. for 15 minutes, then centrifuged. The pellet was washed once more, resuspended to a protein concentration of 5-10 mg/ml in Buffer A and frozen at -70° C. until used.
(§3) To test binding of the compounds to dopamine receptors, the following tritiated drugs were used as radioligands for each of the receptors tested: [^3 H]-Spiperone 21-24 Ci/mmol for D2 receptors and [^3 H]-SCH23390 75-85 Ci/mmol for D1 receptors. The radioligands were incubated with various concentrations of competing drug and bovine membranes for the following times: 75 minutes at room temperature for D2 receptors, and 15 minutes at 37° C. for D1 receptors. Specific binding was defined using 1 μM butaclamol (D2) and 1 μM SCH 23390 (D1). In addition, the D2 assays contained 30 nM ketanserin in order to block the binding of [^3 H]-spiperone to 5-HT2 receptors.
(§4) The assays were terminated by filtration using a 24-port Brandell cell harvester over filters that had been previously soaked in 0.1% polyethyleneimine, and the filters were washed three times by filtration of cold buffer. The filters were then placed in 5 ml scintillation vials to which 4 ml of Beckman Ready-Protein was then added, and each vial was counted for 2 minutes in a Beckman 3801 scintillation counter calibrated for conversion of cpm to dpm. Binding data were analyzed using the Ligand program of Munson and Rodbard (1980). The results are presented as pK1 values in a two-site fitted model.
as §2, with “To test binding to dopamine receptors, the bovine caudate nuclei assay was employed. Bovine” for “Bovine”, “mMMgCl2;” for “mM MgCl2;”, “Brinkman” for “Brinkmann”
(§5) The following tritiated drugs were used as radioligands for each of the receptors tested: [^3 H]-Spiperone 21-24 Ci/mmol for D2 receptors and [^3 H]-SCH23390 75-85 Ci/mmol for D1 receptors. The radioligands were incubated with various concentrations of competing drug and the appropriate membrane source for periods of time as follows: 75 minutes at room temperature for D2 receptors or 15 minutes at 37° C. for D1 receptors. Specific binding was defined using 1 μM butaclamol (D2) or 1 μM SCH23390 (D1). In addition, the D2 assays contained 30nM ketaserin in order to block the binding of ^3 H-spiperone to 5HT2 receptors.
as §4, with “as Ki” for “as pK1”, “values if the data were best fitted to a one-site model, or as Kh and K1 values if” for “values in”, “two-site model produced the better fit.” for “two-site fitted model.”

The target of a further test is dopamine D1 receptors (Bos taurus, UniProt Q95136). Description: Radioligand binding to dopamine D1 receptors ([3H]-SCH23390, bovine caudate nuclei). The following applies: 15 minutes at 37° C., two-site fitted model; for Ki: read-out: D1 (pK1) (converted). The protocol: as §1, §2, §3, §4
as §2, with “To test binding to dopamine receptors, the bovine caudate nuclei assay was employed. Bovine” for “Bovine”, “mMMgCl2;” for “mM MgCl2;”, “Brinkman” for “Brinkmann”
as §5
as §4, with “as Ki” for “as pK1”, “values if the data were best fitted to a one-site model, or as Kh and K1 values if” for “values in”, “two-site model produced the better fit.” for “two-site fitted model.”

The next test concerns dopamine receptor. The note with it: prior art, in words; cited from earlier work.
The next test has as its system dopamine D2. The note with it: reference compound, in words; cited from earlier work.

Each structure is given as a SMILES string. Structures can show the parent of a compound that is named as a salt.

Sequence of dopamine D1 receptors (Q95136 whole entry): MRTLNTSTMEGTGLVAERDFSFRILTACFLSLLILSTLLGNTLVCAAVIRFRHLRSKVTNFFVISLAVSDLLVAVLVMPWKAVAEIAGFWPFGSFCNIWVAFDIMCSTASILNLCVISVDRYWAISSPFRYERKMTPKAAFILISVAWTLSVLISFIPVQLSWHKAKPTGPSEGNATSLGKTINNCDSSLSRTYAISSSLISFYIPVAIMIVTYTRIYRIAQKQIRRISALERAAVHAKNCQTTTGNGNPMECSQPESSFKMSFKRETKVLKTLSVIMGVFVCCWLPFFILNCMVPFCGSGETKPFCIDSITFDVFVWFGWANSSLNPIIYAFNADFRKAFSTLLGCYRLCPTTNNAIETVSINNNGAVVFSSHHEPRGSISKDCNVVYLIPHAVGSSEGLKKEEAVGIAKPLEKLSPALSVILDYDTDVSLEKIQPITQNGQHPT
Sequence of dopamine D2 receptors (P20288 whole entry): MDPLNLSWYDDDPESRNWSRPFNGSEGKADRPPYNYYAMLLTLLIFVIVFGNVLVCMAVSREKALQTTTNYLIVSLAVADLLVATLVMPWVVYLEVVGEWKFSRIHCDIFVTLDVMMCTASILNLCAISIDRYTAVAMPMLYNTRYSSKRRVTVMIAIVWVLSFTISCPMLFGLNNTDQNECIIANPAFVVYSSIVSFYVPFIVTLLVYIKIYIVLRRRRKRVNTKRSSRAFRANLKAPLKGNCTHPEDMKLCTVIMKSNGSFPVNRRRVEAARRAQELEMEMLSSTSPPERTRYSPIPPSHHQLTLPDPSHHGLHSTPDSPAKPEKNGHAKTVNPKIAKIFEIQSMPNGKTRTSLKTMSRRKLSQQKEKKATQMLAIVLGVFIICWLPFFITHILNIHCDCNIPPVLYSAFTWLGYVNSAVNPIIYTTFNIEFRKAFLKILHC

On to `CCCN(CCSc1ccccc1)C1CCc2c(O)cccc2C1` (stereo not shown) [Example 34, 5,6,7,8-tetrahydro-6-[(2-thiophenoxyethyl)propylamino]-1-naphthalenol], for which the values for the Ki on dopamine D2 receptors and at dopamine D1 receptors were 0.0794 µM and 1.29 µM, respectively.

As for `CCCN(CCOc1ccccc1)C1CCc2c(O)cccc2C1` (stereo not shown) [Example 2, 2-[N-n-propyl,N-2-(phenyloxy)ethylamino]-5-hydroxytetralin], the Ki on dopamine D2 receptors was 0.126 µM. Also, on dopamine D2 receptors (in words), the “affinity for binding to dopamine D2 receptors” value was “high affinity”; the “selectivity for binding to dopamine D2 receptors” value is “high affinity and selectivity”. On dopamine D1 receptors, the Ki is 12 µM.

For `CCCN(CCOc1cccc2ccccc12)C1CCc2c(O)cccc2C1` (stereo not shown) [Example 48, 5,6,7,8-tetrahydro-6-[[2-(1-naphthalenyloxy)ethyl]propylamino]-1-naphthalenol hydrochloride], the Ki was 1.15 µM at dopamine D2 receptors and 13.5 µM on dopamine D1 receptors.

Turning to `CCCN(CCOc1cccc(F)c1)C1CCc2c(O)cccc2C1` (stereo not shown) [Example 45, 5,6,7,8-tetrahydro-6-[[2(3-fluorophenoxy)ethyl]propylamino]-1-naphthalenol], the Ki on dopamine D2 receptors is 0.316 µM; at dopamine D1 receptors, 10.5 µM.

As for `CCCN(CCC(c1ccccc1)c1ccccc1)C1CCc2c(O)cccc2C1` (stereo not shown) [Example 14, 2-[N-n-propyl,N-3,3-diphenyipropylamino]-5-hydroxytetralin], the Ki is 0.339 µM at dopamine D2 receptors and 1.38 µM on dopamine D1 receptors.

Take `CCCN(CC[C@@H]1OC(=O)c2ccccc21)[C@H]1CCc2c(O)cccc2C1` [Example 37, (S,S)-3-[2-[propyl(1,2,3,4-tetrahydro-5-hydroxy-2-naphthalenyl)amino]ethyl]-1(3H)-isobenzofuranone]: the values for the Ki at dopamine D2 receptors and at dopamine D1 receptors were 0.123 µM and 1.23 µM, respectively.

Consider `CCCN(CC(c1ccccc1)c1ccccc1)C1CCc2c(O)cccc2C1` (stereo not shown) [Example 12, 2-[N-n-propyl,N-2,2-diphenylethylamino]-5-hydroxytetralin], for which the Ki is 0.0468 µM on dopamine D2 receptors and 9.12 µM at dopamine D1 receptors.

For the compound `CCCN(CCC1OC(=O)c2ccccc21)C1CCc2c(O)cccc2C1` (stereo not shown) [Example 9, 3-[2-[propyl(1,2,3,4-tetrahydro-5-hydroxy-2-naphthalenyl)amino]ethyl]-l(3H)-isobenzofuranone], the Ki on dopamine D2 receptors is 0.0661 µM; on dopamine D1 receptors, 2.14 µM.

For the compound `CCCN(CCC1OCc2ccccc21)C1CCc2c(O)cccc2C1` (stereo not shown) [Example 46, 6-[[2-(1,3-dihydro-1-isobenzofuranyl)-ethyl]propylamino]-5,6,7,8-tetrahydro-1-naphthalenol], the “D2 (pK1)” value at dopamine D2 receptors is reported as 6.77. The “D1 (pK1)” value on dopamine D1 receptors worked out at 5.14.

As to `CCCN(CCOc1ccccc1)C1CCc2ccc(O)cc2C1` (stereo not shown) [Example 39, 5,6,7,8-tetrahydro-6-[(2-phenoxylethyl)-propylamino]-3-naphthalenol], the Ki on dopamine D2 receptors is 0.813 µM; on dopamine D1 receptors, 12.3 µM.

Consider `CN1CCc2cccc3c2[C@H]1Cc1ccc(O)c(O)c1-3` [apomorphine], for which the dopaminergic activity result in the test with dopamine receptor was “high activity”.

For the compound `CCCN(CCOc1ccc2ccccc2c1)C1CCc2c(O)cccc2C1` (stereo not shown) [Example 32, 5,6,7,8-tetrahydro-6-[(2-(2-naphthalenyloxy)ethyl]propylamino]-1-naphthalenol], the Ki at dopamine D2 receptors is 2.63 µM; at dopamine D1 receptors it was 4.17 µM.

Take `CCCN(CCOc1ccccc1)C1CCc2c(O)cccc2C1` (single isomer, unassigned; (-)) [Example 30, (-)-5,6,7,8-tetrahydro-6-[(2-phenoxyethyl)propylamino]-1-naphthalenol]: the Ki on dopamine D2 receptors was 0.17 µM; on dopamine D1 receptors, 8.71 µM.

For `CCCN(CC[C@H]1OC(=O)c2ccccc21)[C@H]1CCc2c(O)cccc2C1` [Example 36, (S,R)-3-[2-[propyl(1,2,3,4-tetrahydro-5-hydroxy-2-naphthalenyl)amino]ethyl]-l(3H)-isobenzofuranone], the “D2 (pK1)” value on dopamine D2 receptors is reported as 6.85. For the same compound, the “D1 (pK1)” value at dopamine D1 receptors worked out at 6.56.

For the compound `CCCN(CCc1cccs1)C1CCc2c(O)cccc2C1` (racemic) [Example N-0437, reference compound], on dopamine D2 receptors, the “D2 (pK1)” value is listed as 6.96. In addition, in the test with dopamine D2, the “dopamine D2 agonist” value is reported as “potent dopamine D2 agonist”.

Source of the values: US5358971A, “Substituted 2-aminotetralins” (Whitby Research, Inc., priority 1993, dated 1994).
